Tested on: macrophage cells
From the text: Positive control includes only growth media (FIG. A).
Positive control includes only growth media.

## CC(=O)[O-].CC(=O)[O-].[Zn+2] [Zn acetate]
  cytotoxic effect on macrophage cells: toxic impact

From patent US12018195B2, “Light-selective particles, related methods and related applications” (priority 2014, dated 2024)
